pIC50: −log10 of the molar value. Structures can show the parent of a compound that is named as a salt. Where two headings read alike, the source gives them in different places.
Experiments:
[1] = target: NaV1.6 (Homo sapiens (Human), UniProt Q9UQD0); assay: Sodium Influx Assay (Flux), NaV1.6
[2] = target: NaV1.1 (Homo sapiens (Human), UniProt P35498); assay: Sodium Influx Assay (Flux), NaV1.1; format: cell-based; conditions: Trex HEK293 cells, ANG2 dye; arithmetic mean
[3] = target: NaV1.5 (Homo sapiens (Human), UniProt Q14524); assay: Sodium Influx Assay (Flux), NaV1.5; conditions: read-out: Flux NaV1.5 IC50; Trex HEK293 cells, ANG2 dye; arithmetic mean
[4] = read-out: Flux NaV1.6 IC50, Trex HEK293 cells, ANG2 dye, arithmetic mean

Chain of NaV1.5 (Q14524 other isoform, or with tags, fused parts or gaps): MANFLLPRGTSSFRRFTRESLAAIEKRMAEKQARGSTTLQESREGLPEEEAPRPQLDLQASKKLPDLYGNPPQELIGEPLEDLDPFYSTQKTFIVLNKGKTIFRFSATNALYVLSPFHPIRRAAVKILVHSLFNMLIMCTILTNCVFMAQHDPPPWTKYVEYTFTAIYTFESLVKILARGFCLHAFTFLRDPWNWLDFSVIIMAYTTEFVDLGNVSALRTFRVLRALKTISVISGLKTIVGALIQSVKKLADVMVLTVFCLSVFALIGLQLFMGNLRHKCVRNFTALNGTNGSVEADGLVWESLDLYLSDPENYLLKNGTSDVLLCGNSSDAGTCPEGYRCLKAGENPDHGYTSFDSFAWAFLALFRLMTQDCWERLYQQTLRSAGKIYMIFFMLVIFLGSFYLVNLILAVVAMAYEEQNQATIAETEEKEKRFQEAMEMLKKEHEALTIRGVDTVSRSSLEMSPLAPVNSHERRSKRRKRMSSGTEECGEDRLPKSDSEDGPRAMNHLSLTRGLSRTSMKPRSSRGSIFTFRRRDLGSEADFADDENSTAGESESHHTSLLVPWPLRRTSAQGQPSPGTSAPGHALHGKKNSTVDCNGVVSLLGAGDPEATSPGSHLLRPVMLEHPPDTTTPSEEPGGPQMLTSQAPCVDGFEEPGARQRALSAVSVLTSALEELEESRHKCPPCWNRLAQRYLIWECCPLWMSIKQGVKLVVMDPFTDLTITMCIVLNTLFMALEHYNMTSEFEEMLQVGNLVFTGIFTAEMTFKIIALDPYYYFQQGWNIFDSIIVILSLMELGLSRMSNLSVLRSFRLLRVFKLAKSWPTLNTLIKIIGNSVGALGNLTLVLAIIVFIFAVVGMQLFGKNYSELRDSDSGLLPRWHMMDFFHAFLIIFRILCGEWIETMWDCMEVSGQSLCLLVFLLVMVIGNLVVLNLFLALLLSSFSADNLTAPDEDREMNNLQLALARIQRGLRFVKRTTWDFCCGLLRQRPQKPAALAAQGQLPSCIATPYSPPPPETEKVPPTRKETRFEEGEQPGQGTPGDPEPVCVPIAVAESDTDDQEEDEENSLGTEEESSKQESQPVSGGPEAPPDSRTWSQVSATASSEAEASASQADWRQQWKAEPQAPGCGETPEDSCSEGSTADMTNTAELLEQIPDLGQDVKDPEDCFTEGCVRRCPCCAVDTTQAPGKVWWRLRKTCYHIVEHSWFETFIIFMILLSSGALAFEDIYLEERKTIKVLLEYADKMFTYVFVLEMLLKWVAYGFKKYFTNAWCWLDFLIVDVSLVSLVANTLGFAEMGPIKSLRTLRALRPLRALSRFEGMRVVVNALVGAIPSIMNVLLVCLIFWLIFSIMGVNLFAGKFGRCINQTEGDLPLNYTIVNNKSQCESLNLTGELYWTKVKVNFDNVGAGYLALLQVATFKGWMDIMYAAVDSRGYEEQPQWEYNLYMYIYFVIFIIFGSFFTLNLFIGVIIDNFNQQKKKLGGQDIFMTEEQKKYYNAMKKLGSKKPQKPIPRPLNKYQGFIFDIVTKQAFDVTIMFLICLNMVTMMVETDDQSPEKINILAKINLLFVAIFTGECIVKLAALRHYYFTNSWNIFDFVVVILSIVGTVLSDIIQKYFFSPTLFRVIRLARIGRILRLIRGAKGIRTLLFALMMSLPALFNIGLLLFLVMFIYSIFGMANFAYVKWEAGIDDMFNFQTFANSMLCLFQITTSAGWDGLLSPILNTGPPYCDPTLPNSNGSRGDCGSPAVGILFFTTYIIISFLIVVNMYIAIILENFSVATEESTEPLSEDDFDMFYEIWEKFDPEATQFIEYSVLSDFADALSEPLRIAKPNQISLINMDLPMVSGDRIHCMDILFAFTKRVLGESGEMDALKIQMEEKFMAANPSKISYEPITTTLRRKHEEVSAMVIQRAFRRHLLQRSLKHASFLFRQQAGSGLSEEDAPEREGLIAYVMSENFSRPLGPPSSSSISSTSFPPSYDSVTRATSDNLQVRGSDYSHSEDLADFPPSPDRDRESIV

Row | Compound | pIC50 [2] | pIC50 [1, 4] | pIC50 [1] | pIC50 [3]
1 | C[C@@H]1CN(Cc2ccccc2F)CC[C@@H]1Oc1ccc(S(=O)(=O)Nc2nccs2)cc1Cl (relative stereo) [Example 10A, 3-chloro-4-((cis-1-(2-fluorobenzyl)-3-methylpiperidin-4-yl)oxy)-N-(thiazol-2-yl)benzenesulfonamide] |  |  | 5.90 | 
2 | C[C@@H]1CN(Cc2ccccc2F)CC[C@H]1Oc1ccc(S(=O)(=O)Nc2nccs2)cc1Cl (relative stereo) [Example 10B, 3-chloro-4-((trans-1-(2-fluorobenzyl)-3-methylpiperidin-4-yl)oxy)-N-(thiazol-2-yl)benzenesulfonamide] |  |  | 5.94 | 
3 | C[C@H]1C[C@@H](Oc2ccc(S(=O)(=O)Nc3nccs3)cc2Cl)CCN1Cc1ccccc1 (relative stereo) [Example 72, 4-((cis-1-benzyl-2-methylpiperidin-4-yl)oxy)-3-chloro-N-(thiazol-2-yl)benzenesulfonamide] | 5.17 | 5.22 |  | 4.87
4 | C[C@@H]1C[C@@H](Oc2ccc(S(=O)(=O)Nc3nccs3)cc2Cl)CCN1Cc1ccccc1 (relative stereo) [Example 73, 4-((trans-1-benzyl-2-methylpiperidin-4-yl)oxy)-3-chloro-N-(thiazol-2-yl)benzenesulfonamide] | 5.23 | 5.73 |  | 4.88
5 | C[C@@H]1CN(Cc2ccccc2)C[C@@H]1Nc1ccc(S(=O)(=O)Nc2nccs2)cc1Cl (relative stereo) [Example 75, 4-((cis-1-benzyl-4-methylpyrrolidin-3-yl)amino)-3-chloro-N-(thiazol-2-yl)benzenesulfonamide] | 5.38 | 6.18 |  | 5.05
6 | Cc1cc(C)cc(CN2CCC(Oc3ccc(S(=O)(=O)Nc4ncns4)cc3Cl)C(C)(C)C2)c1 (centres unmarked) [Example 3, 3-chloro-4-((1-(3,5-dimethylbenzyl)-3,3-dimethylpiperidin-4-yl)oxy)-N-(1,2,4-thiadiazol-5-yl)benzenesulfonamide 2,2,2-trifluoroacetate] | 4.68 | 5.18 |  | 5.21
7 | O=S(=O)(Nc1nccs1)c1ccc(OC2CCN(C3CCCCC3)CC2)c(Cl)c1 [Example 7, 3-chloro-4-((1-cyclohexylpiperidin-4-yl)oxy)-N-(thiazol-2-yl)benzenesulfonamide 2,2,2-trifluoroacetate] | < 4.52 | 4.56 |  | < 4.52
8 | O=S(=O)(Nc1nccs1)c1ccc(O[C@H]2C[C@H]3CC[C@@H](C2)N3Cc2ccccc2)c(Cl)c1 [Example 15, 4-(((1R,3r,5S)-8-benzyl-8-azabicyclo[3.2.1]octan-3-yl)oxy)-3-chloro-N-(thiazol-2-yl)benzenesulfonamide] | 5.03 | 5.59 |  | 4.62
9 | O=S(=O)(Nc1nccs1)c1cc(Cl)c(O[C@@H]2C[C@H]3CC[C@@H](C2)N3Cc2cccc(Cl)c2)cc1F [Example 18, 5-chloro-4-(((1R,3s,5S)-8-(3-chlorobenzyl)-8-azabicyclo[3.2.1]octan-3-yl)oxy)-2-fluoro-N-(thiazol-2-yl)benzenesulfonamide 2,2,2-trifluoroacetate] | < 4.52 | 5.98 |  | < 4.52
10 | CC(c1ccccc1)N1CCC(Oc2ccc(S(=O)(=O)Nc3nccs3)cc2Cl)CC1 (centres unmarked) [Example 52, 3-chloro-4-((1-(1-phenylethyl)piperidin-4-yl)oxy)-N-(thiazol-2-yl)benzenesulfonamide] |  | 6.52 |  | 4.84
11 | O=S(=O)(Nc1cscn1)c1ccc(O[C@@H]2C[C@H]3CC[C@@H](C2)N3Cc2cccc(C(F)F)c2)c(Cl)c1 [Example 256, 3-chloro-4-(((1R,3s,5S)-8-(3-(difluoromethyl)benzyl)-8-azabicyclo[3.2.1]octan-3-yl)oxy)-N-(thiazol-4-yl)benzenesulfonamide] |  |  |  | 5.17
12 | Cc1cc(S(=O)(=O)Nc2cscn2)ccc1N(C)[C@H]1CCN(Cc2ccccc2)C1 [Example 284, (S)-4-((1-benzylpyrrolidin-3-yl)(methyl)amino)-3-methyl-N-(thiazol-4-yl)benzenesulfonamide 2,2,2-trifluoroacetate] | 4.98 | 6.14 |  | 
13 | C[C@H](c1ccccc1)N1CCC(Oc2ccc(S(=O)(=O)Nc3ccon3)cc2Cl)CC1 [Example 305, (R)-3-chloro-N-(isoxazol-3-yl)-4-((1-(1-phenylethyl)piperidin-4-yl)oxy)benzenesulfonamide formate] |  |  |  | < 4.52

Continued, in another order:

Row | pIC50 [2] | pIC50 [1, 4] | Compound | pIC50 [1] | pIC50 [3]
14 | < 4.52 | 4.99 | CC1(C)CNCCC1Oc1ccc(S(=O)(=O)Nc2ncns2)cc1Cl (centres unmarked) [Example 1, 3-chloro-4-((3,3-dimethylpiperidin-4-yl)oxy)-N-(1,2,4-thiadiazol-5-yl)benzenesulfonamide 2,2,2-trifluoroacetate] |  | < 4.52
15 | < 4.52 | < 4.52 | CC1(C)CN(Cc2cc(Cl)cc(Cl)c2)CCC1Oc1ccc(S(=O)(=O)Nc2ncns2)cc1Cl (centres unmarked) [Example 4, 3-chloro-4-((1-(3,5-dichlorobenzyl)-3,3-dimethylpiperidin-4-yl)oxy)-N-(1,2,4-thiadiazol-5-yl)benzenesulfonamide 2,2,2-trifluoroacetate] |  | 4.96
16 | 5.20 | 5.87 | O=S(=O)(Nc1nccs1)c1ccc(OC2CCN(Cc3cccc(OC(F)F)c3)CC2)c(Cl)c1 [Example 5, 3-chloro-4-((1-(3-(difluoromethoxy)benzyl)piperidin-4-yl)oxy)-N-(thiazol-2-yl)benzenesulfonamide] |  | 5.36
17 | 4.92 | 5.12 | O=S(=O)(Nc1nccs1)c1ccc(OC2CCN(CC3CCCCC3)CC2)c(Cl)c1 [Example 6, 3-chloro-4-((1-(cyclohexylmethyl)piperidin-4-yl)oxy)-N-(thiazol-2-yl)benzenesulfonamide 2,2,2-trifluoroacetate] |  | < 4.52
18 | 4.88 | 4.88 | O=S(=O)(Nc1nccs1)c1ccc(OC2CCN(Cc3ccccc3C(F)(F)F)CC2)c(Cl)c1 [Example 12, 3-chloro-N-(thiazol-2-yl)-4-((1-(2-(trifluoromethyl)benzyl)piperidin-4-yl)oxy)benzenesulfonamide] |  | 5.20
19 | 5.17 | 5.77 | O=S(=O)(Nc1nccs1)c1ccc(OC2CCN(Cc3ccccc3Cl)CC2)c(Cl)c1 [Example 13, 3-chloro-4-((1-(2-chlorobenzyl)piperidin-4-yl)oxy)-N-(thiazol-2-yl)benzenesulfonamide] |  | 5.29
20 | < 4.52 | 6.06 | Cc1ccnc(CN2CCC(Oc3ccc(S(=O)(=O)Nc4nccs4)cc3Cl)CC2)c1 [Example 14, 3-chloro-4-((1-((4-methylpyridin-2-yl)methyl)piperidin-4-yl)oxy)-N-(thiazol-2-yl)benzenesulfonamide] |  | 4.97
21 | 5.30 | 5.50 | CC1(Oc2ccc(S(=O)(=O)Nc3nccs3)cc2Cl)CCN(Cc2ccccc2)CC1 [Example 19, 4-((1-benzyl-4-methylpiperidin-4-yl)oxy)-3-chloro-N-(thiazol-2-yl)benzenesulfonamide] |  | 5.33
22 | 5.23 | 5.25 | CC1(Oc2ccc(S(=O)(=O)Nc3nccs3)cc2Cl)CCN(Cc2cccc(Cl)c2)CC1 [Example 20, 3-chloro-4-((1-(3-chlorobenzyl)-4-methylpiperidin-4-yl)oxy)-N-(thiazol-2-yl)benzenesulfonamide] |  | 5.21
23 | 5.50 | 5.50 | CC1(Oc2ccc(S(=O)(=O)Nc3nccs3)cc2Cl)CCN(Cc2cccc(C(F)F)c2)CC1 [Example 21, 3-chloro-4-((1-(3-(difluoromethyl)benzyl)-4-methylpiperidin-4-yl)oxy)-N-(thiazol-2-yl)benzenesulfonamide] |  | 5.33
24 | 4.83 | 5.44 | O=S(=O)(Nc1nccs1)c1ccc(OC2CCN(Cc3ccc(F)cc3)CC2)c(Cl)c1 [Example 22, 3-chloro-4-((1-(4-fluorobenzyl)piperidin-4-yl)oxy)-N-(thiazol-2-yl)benzenesulfonamide 2,2,2-trifluoroacetate] |  | 4.79
25 | 4.75 | 6.59 | Cc1cc(S(=O)(=O)Nc2cscn2)c(F)cc1N(C)[C@H]1CCN(Cc2ccccc2O)C1 [Example 113, (S)-2-fluoro-4-((1-(2-hydroxybenzyl)-pyrrolidin-3-yl)(methyl)amino)-5-methyl-N-(thiazol-4-yl)benzenesulfonamide] |  | 
26 | 5.12 | 5.49 | COc1cccc(CN2CC[C@H](N(C)c3cc(F)c(S(=O)(=O)Nc4cscn4)cc3Cl)C2)c1 [Example 219, (S)-5-chloro-2-fluoro-4-((1-(3-methoxybenzyl)pyrrolidin-3-yl)(methyl)amino)-N-(thiazol-4-yl)benzenesulfonamide] |  | 
27 | 4.56 | 5.68 | O=S(=O)(Nc1cscn1)c1cc(Cl)c(OC2CCN(Cc3ccccc3)CC2)cc1F [Example 238, 4-((1-benzylpiperidin-4-yl)oxy)-5-chloro-2-fluoro-N-(thiazol-4-yl)benzenesulfonamide 2,2,2-trifluoroacetate] |  | 
28 |  | 5.42 | Cc1cc(S(=O)(=O)Nc2cscn2)c(F)cc1N(C)[C@@H]1CCN(Cc2ccccc2)C1 [Example 272, (R)-4-((1-benzylpyrrolidin-3-yl)(methyl)amino)-2-fluoro-5-methyl-N-(thiazol-4-yl)benzenesulfonamide] |  | 
29 |  | 6.68 | Cc1cc(S(=O)(=O)Nc2cscn2)c(F)cc1N(C)[C@H]1CCN(Cc2cccc(F)c2)C1 [compound 157, (S)-2-fluoro-4-((1-(3-fluorobenzyl)pyrrolidin-3-yl)(methyl)amino)-5-methyl-N-(thiazol-4-yl)benzenesulfonamide] |  | 4.73
